Measured values: patent US20240174714A1, “TREATMENT OF SKIN DISORDERS” (priority 2021, published 2024)
Like-named read-outs stand apart in the source and are kept apart here. Square brackets hold non-standard residues; d marks the D form. Peptide text beside a SMILES is read from it. * marks the point of attachment. NH((S)CH(Me)CH2NMe2) = C[C@@H](CN(C)C)N*; NH(1-CH2NMe2-cBu) = CN(C)CC1(N*)CCC1; Gly(octyl) = CCCCCCCC[C@H](N)C(=O)O; Oxazole4CO(2-Me) = Cc1nc(C(=O)*)co1; Thiophene2carbonyl = O=C(c1cccs1)*; Benzoyl(4-F) = O=C(c1ccc(F)cc1)*; hCha = N[C@@H](CCC1CCCCC1)C(=O)O; Pyrrole2CO = O=C(c1ccc[nH]1)*; X10 = O=C(c1ccc2cccnc2c1)*; X5 = O=C(C1CCc2ccccc2C1)*; X12 = CN(C)CC1(N*)CCCC1; Aib = CC(C)(N)C(=O)O; X11 = CN(CCN*)CC(F)F; βAla = NCCC(=O)O; tBu = CC(C)(C)*

How the values were obtained:
[1] = system: intracellular Leishmania donovani MHOM-ET-67/L82 amastigotes; assay: In vitro antiprotozoal assay, intracellular amastigotes; assay type: cell-based
Method: (§1) The testing of the inventive compounds against Leishmania donovani (strain MHOM/ET/67/L82) was performed in 96 well plates at concentrations in serial dilutions. Tests were done in triplicate.

[2] = Cytotoxicity assay (Alamar Blue) on L6-cells; assay type: cell-based, rat
Method: Tests were done in triplicate.
The plates were incubated for additional 2 h.

[3] = system: axenic Leishmania donovani MHOM-ET-67/L82 amastigotes; assay: In vitro antiprotozoal assay, axenic amastigotes; assay type: cell-based
Method: as §1

[4] = intracellular amastigotes, read-out: L.don.InMac IC50
[5] = rat myoblast L6 cells, read-out: Cytotox L6 IC50
[6] = axenic amastigotes, read-out: L.don.ax. IC50

Row | Compound | IC50 at 68 h [2, 5] | IC50 [3, 6] | IC50 at 68 h ([2]; rat) | other results
1 | CCCCCCCC[C@H](NC(=O)[C@@H]1CCCN1C(=O)c1cccs1)C(=O)N[C@@H](CC(C)C)C(=O)NC(C)(C)C(=O)N[C@@H](CC(C)C)C(=O)N[C@@H](CC(C)C)C(=O)NC(C)(C)C(=O)NC(C)(C)C(=O)NCCC(=O)N[C@@H](C)CN(C)C [Compound 5904, (2S)-N-[(1S)-1-[(1-{[(1S)-1-{[(1S)-1-{[1-({1-[(2-{[(2S)-1-(dimethylamino)propan-2-yl]carbamoyl}ethyl)carbamoyl]-1-methylethyl}carbamoyl)-1-methylethyl]carbamoyl}-3-methylbutyl]carbamoyl}-3-methylbutyl]carbamoyl}-1-methylethyl)carbamoyl]-3-methylbutyl]-2-{[(2S)-1-(thiophene-2-carbonyl)pyrrolidin-2-yl]formamido}decanamide] (Thiophene2carbonyl-P[Gly(octyl)]L[Aib]LL[Aib][Aib][βAla]-{NH((S)CH(Me)CH2NMe2)}) | 0.216 µM | 0.0031 µM | – | IC50 [1, 4]: 0.0114 µM
2 | CCCCCCCC[C@H](NC(=O)[C@@H]1CCCN1C(=O)C1CCc2ccccc2C1)C(=O)N[C@@H](CC(C)C)C(=O)NC(C)(C)C(=O)N[C@@H](CC(C)C)C(=O)N[C@@H](CC(C)C)C(=O)NC(C)(C)C(=O)NC(C)(C)C(=O)NCCC(=O)N[C@@H](C)CN(C)C (stereo partly drawn) [Compound 5910, (2S)—N-[(1S)-1-[(1-{[(1S)-1-{[(1S)-1-{[1-({1-[(2-{[(2S)-1-(dimethylamino)propan-2-yl]carbamoyl}ethyl)carbamoyl]-1-methylethyl}carbamoyl)-1-methylethyl]carbamoyl}-3-methylbutyl]carbamoyl}-3-methylbutyl]carbamoyl}-1-methylethyl)carbamoyl]-3-methylbutyl]-2-{[(2S)-1-(1,2,3,4-tetrahydronaphthalene-2-carbonyl)pyrrolidin-2-yl]formamido}decanamide] (X5-P[Gly(octyl)]L[Aib]LL[Aib][Aib][βAla]-{NH((S)CH(Me)CH2NMe2)}) | – | 0.0021 µM | 0.23 µM | IC50 [1, 4]: 0.0067 µM
3 | Cc1nc(C(=O)N2CCC[C@H]2C(=O)N[C@@H](COC(C)(C)C)C(=O)N[C@@H](CC(C)C)C(=O)NC(C)(C)C(=O)N[C@@H](CC(C)C)C(=O)N[C@@H](CC(C)C)C(=O)NC(C)(C)C(=O)NC(C)(C)C(=O)NCCC(=O)NC2(CN(C)C)CCC2)co1 [Compound 6780, (2S)-2-[(2S)-2-{2-[(2S)-2-[(2S)-3-(tert-butoxy)-2-{[(2S)-1-(2-methyl-1,3-oxazole-4-carbonyl)pyrrolidin-2-yl]formamido}propanamido]-4-methylpentanamido]-2-methylpropanamido}-4-methylpentanamido]-N-{1-[(1-{[2-({1-[(dimethylamino)methyl]cyclobutyl}carbamoyl)ethyl]carbamoyl}-1-methylethyl)carbamoyl]-1-methylethyl}-4-methylpentanamide] ({Oxazole4CO(2-Me)}-PS(tBu)L[Aib]LL[Aib][Aib][βAla]-{NH(1-CH2NMe2-cBu)}) | – | 0.166 µM | 8.75 µM | IC50 [1, 4]: 0.997 µM
4 | CC(C)C[C@H](NC(=O)[C@H](CCC1CCCCC1)NC(=O)[C@@H]1CCCN1C(=O)c1ccc(F)cc1)C(=O)NC(C)(C)C(=O)N[C@@H](CC(C)C)C(=O)N[C@@H](CC(C)C)C(=O)NC(C)(C)C(=O)NC(C)(C)C(=O)NCCC(=O)NCCN(C)CC(F)F [Compound 8342, (2S)-2-[(2S)-4-cyclohexyl-2-{[(2S)-1-(4-fluorobenzoyl)pyrrolidin-2-yl]formamido}butanamido]-N-(1-{[(1S)-1-{[(1S)-1-({1-[(1-{[2-({2-[(2,2-difluoroethyl)(methyl)amino]ethyl}carbamoyl)ethyl]carbamoyl}-1-methylethyl)carbamoyl]-1-methylethyl}carbamoyl)-3-methylbutyl]carbamoyl}-3-methylbutyl]carbamoyl}-1-methylethyl)-4-methylpentanamide] ({Benzoyl(4-F)}-P[hCha]L[Aib]LL[Aib][Aib][βAla]-X11) | 6.79 µM | – | – | –
5 | Cc1nc(C(=O)N2CCC[C@H]2C(=O)N[C@@H](CCC2CCCCC2)C(=O)N[C@@H](CC(C)C)C(=O)NC(C)(C)C(=O)N[C@@H](CC(C)C)C(=O)N[C@@H](CC(C)C)C(=O)NC(C)(C)C(=O)NC(C)(C)C(=O)NCCC(=O)NCCN(C)CC(F)F)co1 [Compound 6488, (2S)-2-[(2S)-4-cyclohexyl-2-{[(2S)-1-(2-methyl-1,3-oxazole-4-carbonyl)pyrrolidin-2-yl]formamido}butanamido]-N-(1-{[(1S)-1-{[(1S)-1-({1-[(1-{[2-({2-[(2,2-difluoroethyl)(methyl)amino]ethyl}carbamoyl)ethyl]carbamoyl}-1-methylethyl)carbamoyl]-1-methylethyl}carbamoyl)-3-methylbutyl]carbamoyl}-3-methylbutyl]carbamoyl}-1-methylethyl)-4-methylpentanamide] ({Oxazole4CO(2-Me)}-P[hCha]L[Aib]LL[Aib][Aib][βAla]-X11) | 7.18 µM | 0.429 µM | – | –
6 | CCCCCCCC[C@H](NC(=O)[C@@H]1CCCN1C(=O)c1ccc[nH]1)C(=O)N[C@@H](CC(C)C)C(=O)NC(C)(C)C(=O)N[C@@H](CC(C)C)C(=O)N[C@@H](CC(C)C)C(=O)NC(C)(C)C(=O)NC(C)(C)C(=O)NCCC(=O)N[C@@H](C)CN(C)C [Compound 5939, (2S)-N-[(1S)-1-[(1-{[(1S)-1-{[(1S)-1-{[1-({1-[(2-{[(2S)-1-(dimethylamino)propan-2-yl]carbamoyl}ethyl)carbamoyl]-1-methylethyl}carbamoyl)-1-methylethyl]carbamoyl}-3-methylbutyl]carbamoyl}-3-methylbutyl]carbamoyl}-1-methylethyl)carbamoyl]-3-methylbutyl]-2-{[(2S)-1-(1H-pyrrole-2-carbonyl)pyrrolidin-2-yl]formamido}decanamide] (Pyrrole2CO-P[Gly(octyl)]L[Aib]LL[Aib][Aib][βAla]-{NH((S)CH(Me)CH2NMe2)}) | – | 0.008 µM | 0.611 µM | –
7 | CCCCCCCC[C@H](NC(=O)[C@@H]1CCCN1C(=O)c1ccc2cccnc2c1)C(=O)N[C@@H](CC(C)C)C(=O)NC(C)(C)C(=O)N[C@@H](CC(C)C)C(=O)N[C@@H](CC(C)C)C(=O)NC(C)(C)C(=O)NC(C)(C)C(=O)NCCC(=O)N[C@@H](C)CN(C)C [Compound 5938, (2S)-N-[(1S)-1-[(1-{[(1S)-1-{[(1S)-1-{[1-({1-[(2-{[(2S)-1-(dimethylamino)propan-2-yl]carbamoyl}ethyl)carbamoyl]-1-methylethyl}carbamoyl)-1-methylethyl]carbamoyl}-3-methylbutyl]carbamoyl}-3-methylbutyl]carbamoyl}-1-methylethyl)carbamoyl]-3-methylbutyl]-2-{[(2S)-1-(quinoline-7-carbonyl)pyrrolidin-2-yl]formamido}decanamide] (X10-P[Gly(octyl)]L[Aib]LL[Aib][Aib][βAla]-{NH((S)CH(Me)CH2NMe2)}) | 0.714 µM | – | – | IC50 [3]: 0.013 µM
8 | CCCCCCCCCCCCCCCCOP(=O)([O-])OCC[N+](C)(C)C [Miltefosine, reference compound] | – | – | – | IC50 ([1]; Leishmania donovani, reference compound, L.don.InMac, read-out: IC50 Concurrent): 0.162 µM; IC50 ([3]; Leishmania donovani, reference compound, L.don.ax., read-out: IC50 Concurrent): 0.162 µM
9 | Cc1nc(C(=O)N2CCC[C@H]2C(=O)N[C@@H](Cc2ccccc2)C(=O)N[C@@H](CC(C)C)C(=O)NC(C)(C)C(=O)N[C@@H](CC(C)C)C(=O)N[C@@H](CC(C)C)C(=O)NC(C)(C)C(=O)NC(C)(C)C(=O)NCCC(=O)NC2(CN(C)C)CCC2)co1 [Compound 6328, (2S)-N-(1-{[(1S)-1-{[(1S)-1-({1-[(1-{[2-({1-[(dimethylamino)methyl]cyclobutyl}carbamoyl)ethyl]carbamoyl}-1-methylethyl)carbamoyl]-1-methylethyl}carbamoyl)-3-methylbutyl]carbamoyl}-3-methylbutyl]carbamoyl}-1-methylethyl)-4-methyl-2-[(2S)-2-{[(2S)-1-(2-methyl-1,3-oxazole-4-carbonyl)pyrrolidin-2-yl]formamido}-3-phenylpropanamido]pentanamide] (HELM PEPTIDE1{[Cc1nc(C(=O)[*:2])co1].P.F.L.[Aib].L.L.[Aib].[Aib].[bAla].[CN(C)CC1(N[*:1])CCC1]}$$$$V2.0) | – | 0.381 µM | 8.71 µM | –
10 | CCCCCCCC[C@H](NC(=O)[C@@H]1CCCN1C(=O)c1coc(C)n1)C(=O)N[C@@H](CC(C)C)C(=O)NC(C)(C)C(=O)N[C@@H](CC(C)C)C(=O)N[C@@H](CC(C)C)C(=O)NC(C)(C)C(=O)NC(C)(C)C(=O)NCCC(=O)NC1(CN(C)C)CCCC1 [Compound 6254, (2S)-N-[(1S)-1-[(1-{[(1S)-1-{[(1S)-1-({1-[(1-{[2-({1-[(dimethylamino)methyl]cyclopentyl}carbamoyl)ethyl]carbamoyl}-1-methylethyl)carbamoyl]-1-methylethyl}carbamoyl)-3-methylbutyl]carbamoyl}-3-methylbutyl]carbamoyl}-1-methylethyl)carbamoyl]-3-methylbutyl]-2-{[(2S)-1-(2-methyl-1,3-oxazole-4-carbonyl)pyrrolidin-2-yl]formamido}decanamide] ({Oxazole4CO(2-Me)}-P[Gly(octyl)]L[Aib]LL[Aib][Aib][βAla]-X12) | – | 0.0025 µM | 0.528 µM | –
11 | CCCCCCCC[C@H](NC(=O)[C@@H]1CCCN1C(=O)c1coc(C)n1)C(=O)N[C@@H](CC(C)C)C(=O)NC(C)(C)C(=O)N[C@@H](CC(C)C)C(=O)N[C@@H](CC(C)C)C(=O)NC(C)(C)C(=O)NC(C)(C)C(=O)NCCC(=O)NC1(CN(C)C)CCC1 [Compound 6253, (2S)-N-[(1S)-1-[(1-{[(1S)-1-{[(1S)-1-({1-[(1-{[2-({1-[(dimethylamino)methyl]cyclobutyl}carbamoyl)ethyl]carbamoyl}-1-methylethyl)carbamoyl]-1-methylethyl}carbamoyl)-3-methylbutyl]carbamoyl}-3-methylbutyl]carbamoyl}-1-methylethyl)carbamoyl]-3-methylbutyl]-2-{[(2S)-1-(2-methyl-1,3-oxazole-4-carbonyl)pyrrolidin-2-yl]formamido}decanamide] ({Oxazole4CO(2-Me)}-P[Gly(octyl)]L[Aib]LL[Aib][Aib][βAla]-{NH(1-CH2NMe2-cBu)}) | – | 0.0026 µM | 0.945 µM | –
